Data as given in patent EP2181998B1, “New benzothiazinone derivative and its use as antibacterial agent” (priority 2006, dated 2007).
≈ marks a conversion by molar mass, not a printed value. Like-named read-outs stand apart in the source and are kept apart here.

Assays:
[1] = tested on: Mycobacterium smegmatis SG 987; type: cell-based
M. vaccae IMET 10 10670 = type: cell-based
[2] = tested on: Mycobacterium tuberculosis clinical isolate 6341; type: cell-based
[3] = tested on: Mycobacterium tuberculosis clinical isolate 6374; type: cell-based
[4] = tested on: Mycobacterium tuberculosis H37Rv and clinical isolates 6341 and 6374; assay: MIC and MBC, classical method, over several strains; type: cell-based; conditions: for MBC: read-out: MBC (µg/mL) mean; for MIC: read-out: MIC (µg/mL) mean
M. fortuitum B = conditions: Mycolicibacterium fortuitum, read-out: MIC M.fortuitum
[5] = tested on: Mycobacterium tuberculosis H37Rv; assay: Murine TB model (experimental hematogenously disseminated tuberculosis); type: in vivo, BALB/c line mice; conditions: for Survival of animals: Groups 4/5, 25 mg/kg oral
[6] = Mycolicibacterium smegmatis, SG987; read-out: MIC M. smegmatis
[7] = Mycolicibacterium vaccae, IMET1010670; read-out: MIC M.vaccae
[8] = Mycolicibacterium smegmatis, SG987, read-out: MIC M. smegmatis
[9] = Mycolicibacterium vaccae, IMET1010670, read-out: MIC M.vaccae
[10] = 25 mg/kg orally, 42 days after inoculation of the culture medium

With `N#Cc1cc([N+](=O)[O-])c2sc(N3CCC4(CC3)OCCO4)nc(=O)c2c1` [Compound 9, 2-(1,4-dioxa-8-azaspiro[4.5]dec-8-yl)-8-nitro-4-oxo-1,3-benzothiazine-6-carbonitrile] the MIC [1, 6] was 50 ng/mL (≈ 0.134 µM), the MIC (M. vaccae IMET 10 10670; [7]) was 3.12 ng/mL (≈ 0.00833 µM) and the MBC [2] was 1.17 µg/mL (≈ 3.13 µM). For the same molecule, the MIC [2] was 0.78 µg/mL (≈ 2.08 µM), the MBC [3] was 0.78 µg/mL (≈ 2.08 µM) and the MIC [3] was 0.58 µg/mL (≈ 1.55 µM). The MBC [4] was 0.75 µg/mL (≈ 2 µM), the MIC [4] was 0.52 µg/mL (≈ 1.39 µM) and the MIC (M. fortuitum B) was 25 ng/mL (≈ 0.0668 µM).
For `CC1COC2(CCN(c3nc(=O)c4cc([N+](=O)[O-])cc([N+](=O)[O-])c4s3)CC2)O1` (stereo not drawn) [Compound 4, 2-(2-methyl-1,4-dioxa-8-azaspiro[4.5]decyl)-6,8-dinitro-1,3-benzothiazin-4-one], the MIC [1, 8] was 200 ng/mL (≈ 0.49 µM), the MIC (M. vaccae IMET 10 10670; [9]) was 3 ng/mL (≈ 0.00735 µM) and the MIC (M. fortuitum B) was 3 ng/mL (≈ 0.00735 µM).
Work on `O=c1nc(N2CCC3(CC2)OCCO3)sc2c([N+](=O)[O-])cc(C(F)(F)F)cc12` [Compound 1, 2-(1,4-dioxa-8-azaspiro[4.5]dec-8-yl)-8-nitro-6-(trifluoromethyl)-1,3-benzothiazin-4-one] yielded an MIC [1, 6] of 12.5 ng/mL (≈ 0.0299 µM), an MIC (M. vaccae IMET 10 10670; [7]) of 3.12 ng/mL (≈ 0.00748 µM) and an MBC [2] of 2.34 µg/mL (≈ 5.61 µM). For the same molecule, the MIC [2] was 1.56 µg/mL (≈ 3.74 µM), the MBC [3] was 2.34 µg/mL (≈ 5.61 µM) and the MIC [3] was 1.56 µg/mL (≈ 3.74 µM). It also gave an MBC [4] of 1.75 µg/mL (≈ 4.19 µM), an MIC [4] of 1.17 µg/mL (≈ 2.8 µM) and an MIC (M. fortuitum B) of 12.5 ng/mL (≈ 0.0299 µM).
Work on `O=c1nc(N2CCC3(CC2)OCCCCO3)sc2c([N+](=O)[O-])cc([N+](=O)[O-])cc12` [Compound 7, 2-(7,12-dioxa-3-azaspiro[5.6]dodec-3-yl)-6,8-dinitro-1,3-benzothiazin-4-one] yielded an MIC [1, 8] of 780 ng/mL (≈ 1.85 µM), an MIC (M. vaccae IMET 10 10670; [9]) of 3 ng/mL (≈ 0.0071 µM) and an MIC (M. fortuitum B) of 3 ng/mL (≈ 0.0071 µM).
With `O=c1nc(N2CCC3(CC2)OCCO3)sc2c([N+](=O)[O-])cc([N+](=O)[O-])cc12` [Compound 3, 2-(1,4-dioxa-8-azaspiro[4.5]dec-8-yl)-6,8-dinitro-1,3-benzothiazin-4-one] the MIC [1, 8] was 200 ng/mL (≈ 0.507 µM), the MIC (M. vaccae IMET 10 10670; [9]) was 1.5 ng/mL (≈ 0.0038 µM) and the MIC (M. fortuitum B) was 6 ng/mL (≈ 0.0152 µM).
For `CC1OC2(CCN(c3nc(=O)c4cc(C(F)(F)F)cc([N+](=O)[O-])c4s3)CC2)OC1C` (stereo not drawn) [Compound 5, 2-(2,3-dimethyl-1,4-dioxa-8-azaspiro[4.5]dec-8-yl)-8-nitro-6-(trifluoromethyl)-1,3-benzothiazin-4-one], the MIC [1, 6] was 6.25 ng/mL (≈ 0.014 µM), the MIC (M. vaccae IMET 10 10670; [7]) was 0.078 ng/mL (≈ 0.000175 µM) and the MBC [2] was 0.39 µg/mL (≈ 0.876 µM). For the same molecule, the MIC [2] was less than 0.39 µg/mL, the MBC [3] was 0.39 µg/mL (≈ 0.876 µM) and the MIC [3] was less than 0.39 µg/mL. The MBC [4] was 0.45 µg/mL (≈ 1.01 µM), the MIC [4] was 0.39 µg/mL (≈ 0.876 µM) and the MIC (M. fortuitum B) was 0.078 ng/mL (≈ 0.000175 µM).
For `Cc1c([N+](=O)[O-])cc2c(=O)nc(N3CCC4(CC3)OCCO4)sc2c1[N+](=O)[O-]` [Compound 8, 2-(1,4-dioxa-8-azaspiro[4.5]dec-8-yl)-7-methyl-6,8-dinitro-1,3-benzothiazin-4-one], the MIC [1, 8] was 400 ng/mL (≈ 0.979 µM), the MIC (M. vaccae IMET 10 10670; [9]) was 25 ng/mL (≈ 0.0612 µM) and the MIC (M. fortuitum B) was 25 ng/mL (≈ 0.0612 µM).
Molecule `NNC(=O)c1ccncc1` [Isoniazid (INH), Isoniazid, reference compound] has an MBC [2] greater than 100 µg/mL, an MIC [2] greater than 100 µg/mL and an MBC ([2]; read-out: MBC (µg/mL) mean) greater than 100 µg/mL. It also gave an MIC ([2]; read-out: MIC (µg/mL) mean) greater than 100 µg/mL, an MBC [3] greater than 100 µg/mL and an MIC [3] greater than 100 µg/mL. The MBC ([3]; read-out: MBC (µg/mL) mean) was greater than 100 µg/mL, the MIC ([3]; read-out: MIC (µg/mL) mean) was greater than 100 µg/mL and the Injury index ([5]; 25 mg/kg orally, daily 6 times per week, four-score scale, liver, spleen and lungs) was 1,2. For the same molecule, the “Efficacy index (%)” value ([5]; 25 mg/kg orally, 100% - injury index of group / injury index of control x 100) was 70,5%, the “right lung Culture, without dilution CFU” value [5, 10] was “∼ 40 CFU” and the “spleen Culture, without dilution CFU” value [5, 10] was “∼ 40 CFU”. The Survival of animals ([5]; day of treatment 1, of 10 animals) was 10, the Survival of animals ([5]; day of treatment 2, of 10 animals) was 10 and the Survival of animals ([5]; day of treatment 3, of 10 animals) was 10. For the same molecule, the Survival of animals ([5]; day of treatment 4, of 10 animals) was 10, the Survival of animals ([5]; day of treatment 5, of 10 animals) was 10 and the Survival of animals ([5]; day of treatment 6, of 10 animals) was 10. The Survival of animals ([5]; day of treatment 7, of 10 animals) was 10, the Survival of animals ([5]; day of treatment 8, of 10 animals) was 10 and the Survival of animals ([5]; day of treatment 9, of 10 animals) was 10. It also gave a Survival of animals ([5]; day of treatment 10, of 10 animals) of 10, a Survival of animals ([5]; day of treatment 11, of 10 animals) of 10 and a Survival of animals ([5]; day of treatment 12, of 10 animals) of 10. For the same molecule, the Survival of animals ([5]; day of treatment 13, of 10 animals) was 10, the Survival of animals ([5]; day of treatment 14, of 10 animals) was 10 and the Survival of animals ([5]; day of treatment 15, of 10 animals) was 10. It also gave a Survival of animals ([5]; day of treatment 16, of 10 animals) of 10, a Survival of animals ([5]; day of treatment 17, of 10 animals) of 10 and a Survival of animals ([5]; day of treatment 18, of 10 animals) of 10. For the same molecule, the Survival of animals ([5]; day of treatment 19, of 10 animals) was 10, the Survival of animals ([5]; day of treatment 20, of 10 animals) was 10 and the Survival of animals ([5]; day of treatment 21, of 10 animals) was 10. It also gave a Survival of animals ([5]; day of treatment 22, of 10 animals) of 10, a Survival of animals ([5]; day of treatment 23, of 10 animals) of 10 and a Survival of animals ([5]; day of treatment 24, of 10 animals) of 10. For the same molecule, the Survival of animals ([5]; day of treatment 25, of 10 animals) was 10, the Survival of animals ([5]; day of treatment 26, of 10 animals) was 10 and the Survival of animals ([5]; day of treatment 27) was 100%.
